Measured values taken from patent publication US20140088144A1, “INHIBITING MICROBIAL INFECTIONS” (THE UNIVERSITY OF KANSAS, priority 2012, published 2014).

What was measured:
RhaS = RhaS (Escherichia coli, UniProt P09377); experiment: In vivo dose-response, RhaS-activated rhaB-lacZ reporter fusion (β-galactosidase); assay type: cell-based, E. coli; conditions: full-length RhaS
Text: For dose-response studies, a rhaB-lacZ reporter strain was designed that allowed IPTG induction of RhaS or RhaS(163-278) expression from pHG165 (and thus rhaB-lacZ expression). The strain was constructed by introducing malP::lacIq into SME3000 via phage P1vir-mediated generalized transduction. First, SME3000 was transduced with Δcrp-3 zhc-511::Tn10 from SME1403, selecting for tetracycline resistance and screening for sorbitol deficiency (indicating Δcrp) using MacConkey sorbitol. SME3000 Acrp-3 zhc-511::Tn10 was transduced with crp^+ malP::lacI^q from SG22166, selecting for growth on minimal sorbitol and screening for maltose deficiency (indicating malP::lacI^q) using MacConkey maltose. Finally, SME3000 malP::lacI^q zhc-511::Tn10 was transduced with recA::cat from SME1048 by selecting for chloramphenicol resistance, to make strain SME3632.
The top hit identified in the screen was 1-ethyl-4-(nitromethyl)-3-quinolin-2-yl-4H-quinoline, Compound 2. The closely related compound, Compound 1,1-butyl-4-(nitromethyl)-3-quinolin-2-yl-4H-quinoline, was obtained from eMolecules, Inc. (Solana Beach, Calif.; catalog #3761-0013) or Princeton BioMolecular Research (Princeton, N.J.; catalog #OSSL—051168), with the Princeton named used here. […] Lysis/ONPG buffer (50 μL, as in Primary Screen) was added to each well and the plate was immediately placed into a PowerWave XS plate reader (BioTek Instruments, Inc., Winooski, Vt.), set to read the OD420 of each well every 15 min for 4 hr. […] Due to differences in kinetics of lacZ reporter expression, the rhaB-lacZ strains were analyzed at 4 hours and the hts-lacZ strain was analyzed at 1 hr. Percent activity was calculated for each condition as described above, using the single time point with appropriate OD420 levels for each strain. […] IC50 and maximal inhibition values were calculated using the XLfit add-in for Microsoft Excel (ID Business Solutions, Guildford, UK), and graphs were drawn using Prism (GraphPad, La Jolla, Calif.).

icsA = experiment: Shigella gene expression qRT-PCR, icsA; assay type: cell-based, S. flexneri; conditions: for Average ΔΔCt / Ct / RQ (2^−ΔΔCt) / ΔΔCt^1 (normalized to gapA) / ΔΔCt^2 (normalized to rrsA): icsA, example data
Description: (§1) Real-time quantitative reverse transcription PCR (qRT-PCR) was performed to test the effects of SE-1 on the expression of the VirF regulated genes virB, icsA, icsB and ipaB. The gapA and rrsA transcripts were used as internal controls. These are constitutively expressed Shigella genes commonly used to normalize mRNA levels. S. flexneri strain SME4331, which carries a null mutation in ipgD (ipgD), was grown at 30° C. overnight in TSB with ampicillin, diluted into the same medium to an OD600 of ˜0.1, and 1 ml aliquots further grown at 30° C. (DMSO only) or at 37° C. (SE-1 at 20 or 40 μM, or DMSO only, all 0.3% DMSO). Cells were grown to an OD600 of 1.0 (˜2.5 h) and RNA was isolated using an RNeasy MiniElute Cleanup Kit (Qiagen, Germantown, Md.), with DNA contamination eliminated using a Turbo DNase Kit (Ambion, Austin, Tex.). Complementary DNA (cDNA) was synthesized by random priming using a cDNA Reverse Transcription Kit (Applied Biosystems, Foster City, Calif.). Primers were tested for PCR specificity using genomic DNA template to ensure a single amplicon of the expected size for each primer pair, and validated using 5-fold dilutions of cDNA (2000 to 0.0256 ng) to ensure a linear plot of cycle threshold (Ct) versus cDNA concentration. Validated primer sets were used to test mRNA profiles in reactions that contained 10 ng of cDNA, 10 μl of SYBR green master mix (Applied Biosystems), specific primers (0.5 μM each) and water to a final volume of 20 μl, using a Step One Plus Real-Time PCR System (Applied Biosystems). The data was analyzed using the 2^−ΔΔCt method, and also by Applied Biosystems real-time analysis software. […] In brief, ΔΔCt values [ΔΔCt=(Ct,Target−Ct,Internal Control)SE-1−(Ct,Target−Ct,Internal Control)no SE-1] were separately obtained for each sample relative to two internal controls, gapA and rrsA. The ΔΔCt values relative to the two internal controls for each sample were averaged and then used to calculate the relative expression levels (2^−ΔΔCt). As a control, we also normalized each internal control to the other internal control. Control reactions used templates generated without reverse transcriptase to ensure low genomic DNA contamination. To ensure that products were not likely to be due to primer dimer artifacts, additional control samples were performed in which reaction mixtures contained primers alone (no template).

icsB = experiment: Shigella gene expression qRT-PCR, icsB; assay type: cell-based, S. flexneri; conditions: for Average ΔΔCt / Ct / RQ (2^−ΔΔCt) / ΔΔCt^1 (normalized to gapA) / ΔΔCt^2 (normalized to rrsA): icsB, example data
Description: as §1

Rns = Rns (Escherichia coli, UniProt P16114); experiment: % Inhibition at 82.5 μM, Rns; assay type: cell-based, Enterotoxigenic E. coli; conditions: 82.5 μM
Rns, sequence (P16114 whole entry): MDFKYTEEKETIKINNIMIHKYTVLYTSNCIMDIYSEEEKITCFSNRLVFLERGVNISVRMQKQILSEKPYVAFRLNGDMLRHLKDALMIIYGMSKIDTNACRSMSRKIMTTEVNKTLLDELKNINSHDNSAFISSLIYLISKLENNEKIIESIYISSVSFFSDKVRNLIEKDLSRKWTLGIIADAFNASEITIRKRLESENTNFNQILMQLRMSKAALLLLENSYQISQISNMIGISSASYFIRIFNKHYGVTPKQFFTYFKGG

RhaS, sequence (P09377 whole entry, the tested form may be a part): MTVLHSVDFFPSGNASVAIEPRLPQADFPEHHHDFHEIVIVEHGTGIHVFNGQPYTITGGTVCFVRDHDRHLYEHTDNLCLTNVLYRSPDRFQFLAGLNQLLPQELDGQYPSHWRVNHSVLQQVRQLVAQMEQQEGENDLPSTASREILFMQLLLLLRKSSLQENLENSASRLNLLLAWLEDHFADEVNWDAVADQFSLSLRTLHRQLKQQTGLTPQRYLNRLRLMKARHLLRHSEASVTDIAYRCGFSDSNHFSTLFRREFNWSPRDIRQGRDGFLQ

## CCCCN1C=C(c2ccc3ccccc3n2)C(C[N+](=O)[O-])c2ccccc21 (centres unmarked) [Compound 1, 1-butyl-4-(nitromethyl)-3-quinolin-2-yl-4H-quinoline]
RhaS; rhaB-lacZ
  inhibition of the RhaS-activated fusion: fully inhibit expression
RhaS; rhaB-lacZ (SME3634), read-out: IC50, expression of the RhaS-activated fusion
  IC50: ~30 µM
icsA; 20 μM inhibitor, 37° C.
  icsA expression level: essentially unchanged
icsA; 40 μM inhibitor, P<0.05
  icsA expression level: significantly reduced
icsA; SE-1 20 μM
  Average ΔΔCt: 0.04
  Ct: 27.88
  RQ (2^−ΔΔCt): 0.97
  ΔΔCt^1 (normalized to gapA): −0.46
  ΔΔCt^2 (normalized to rrsA): 0.54
icsA; SE-1 40 μM
  Average ΔΔCt: 1.17
  Ct: 28.59
  RQ (2^−ΔΔCt): 0.44
  ΔΔCt^1 (normalized to gapA): 0.82
  ΔΔCt^2 (normalized to rrsA): 1.52
icsB; 40 μM SE-1, P<0.05
  reduction of icsB expression: two-fold reduction
icsB; SE-1 20 μM
  Average ΔΔCt: −0.06
  Ct: 26.25
  RQ (2^−ΔΔCt): 1.04
  ΔΔCt^1 (normalized to gapA): −0.56
  ΔΔCt^2 (normalized to rrsA): 0.44
icsB; SE-1 40 μM
  Average ΔΔCt: 1.14
  Ct: 27.04
  RQ (2^−ΔΔCt): 0.45
  ΔΔCt^1 (normalized to gapA): 0.80
  ΔΔCt^2 (normalized to rrsA): 1.49
Rns
  % Inhibition at 82.5 μM Rns: 90%
